# Reference: US20250170090A1, “METHOD FOR PREVENTING OR TREATING DISEASE OR DISORDER ASSOCIATED WITH ANTINEOPLASTIC AGENT” (ONQUALITY PHARMACEUTICALS CHINA LTD., priority 2022, published 2025)
# Like-named read-outs stand apart in the source and are kept apart here.
# Columns and labels:
# [1] = system: chemotherapy-induced hand-foot syndrome; assay: Prevention of chemotherapy-induced hand-foot syndrome in rat models (Table 5); assay type: in vivo, SD rats
# Procedure: Rat animal model was constructed. After several days, the rats develop hand-foot syndrome in their paws. After one week of acclimatization (about 200 g), the SD rats are divided into groups of 10 rats each, followed by gavage administration experiment. The chemotherapy drugs were dissolved, and each rat was given a gavage dose of 1 mL/100 g. After gavage, the rats were fixed with a fixed cylinder. NO-NSAID ointment was applied to the paws of the rats in the medication group, and blank ointment was applied to the paws of the rats in the blank group (as blank control). […] Table 5 lists the animal experimental combinations of chemotherapy drugs and NO-NSAID ointment, as well as the corresponding experimental results (where the value in the control rate column=the incidence rate of hand-foot syndrome in the blank group−the incidence rate of hand-foot syndrome in the treatment group).
# HUVEC cells = assay: CCK-8 cell viability: alleviation of proliferative toxicity of anti-tumor agents on HUVEC cells (Tables 7-1, 7-2); assay type: cell-based; settings: for activation at 100 µM: Homo sapiens, 24 h, percentage increase in viable cells vs anti-tumor agent alone, read-out: Response rate % (average)
# Procedure: The cultured HUVEC cells were digested the suspended, counted, and seed into a 96-well plate with 5,000-10,000 cells per well. The wells are divided into the following groups: blank control group, anti-tumor agent group, anti-tumor agent+NO-NSAID group, anti-tumor agent solvent group, NO-NSAID control group. Wherein each well of each group contained a basic medium, and the final liquid volume contained in each well was about 100 μL. The grouping situation was as follows: • 1) Blank control group: no solution was added except normally replacing the medium; • 2) Anti-tumor agent group: added the anti-tumor agent solution (the final concentration was shown in Table 7-1 and Table 7-2, the solvent of the anti-tumor agent solution was DMSO); • 3) Anti-tumor agent+NO-NSAID group: added the anti-tumor agent solution and the NO-NSAID solution (the final concentrations of anti-tumor agent and NO-NSAID were shown in Table 7-1 and Table 7-2, and according to the solubility of NO-NSAID, the solvent of NO-NSAID solution was selected as ethanol or sterile water, and minor volume differences in each group were adjusted by added the corresponding solvent); • 4) Anti-tumor agent solvent group: an equal volume of DMSO as contained in the corresponding anti-tumor agent solution in Group 2) was added; • 5) NO-NSAID control group: the same volume and type of solvent (for example, ethanol or sterile water) corresponding to the NO-NSAID contained in group 3) was added.
# The anti-tumor agent solvent group was not involved in data processing and was only used as a reference for evaluating experimental system error. The NO-NSAID solvent control group was used for data correction to eliminate the influence of the solvent on the results.
# After culturing for 24-48 hours, the Cell Counting Kit-8 (CCK-8) detection kit (C0037, Shanghai Beyotime Biotechnology Co., Ltd., Beyotime Biotechnology) was used to determine the cell viability. This allows for the calculation of the proliferative toxicity of anti-tumor agent on cell and the mitigating effect of NO-NSAID on proliferative toxicity. The results were statistically analyzed and plotted using GraphPad Prism 6.0 software and t test.
# [2] = Afatinib (10 μM), NO-NSAID 100 μM
# [3] = Cabozantinib (5 μM), NO-NSAID 100 μM
# [4] = Dabrafenib (10 μM), NO-NSAID 100 μM
# [5] = Everolimus (5 μM), NO-NSAID 100 μM
# [6] = Infigratinib (15 μM), NO-NSAID 100 μM
# [7] = Lapatinib (5 μM), NO-NSAID 100 μM
# [8] = Lenvatinib (10 μM), NO-NSAID 100 μM
# [9] = Olmutinib (10 μM), NO-NSAID 100 μM
# [10] = Regorafenib (5 μM), NO-NSAID 100 μM
# [11] = Selumetinib (5 μM), NO-NSAID 100 μM
# [12] = Sorafenib (5 μM), NO-NSAID 100 μM
# [13] = Sunitinib (5 μM), NO-NSAID 100 μM
structure (smiles),measurement,setting,value
CC(C(=O)OCCCO[N+](=O)[O-])c1ccc(-c2ccccc2)c(F)c1 (stereo not shown) [Compound A1],Control rate,"[1]; Capecitabine 4000 mg/kg once a day, ointment 1% wt, Days 40",37.50%
same,Control rate,"[1]; Capecitabine 4000 mg/kg once a day, ointment 3% wt, Days 40",44.44%
same,Control rate,"[1]; Doxorubicin 7 mg/kg once every three days, ointment 1% wt, Days 30",50.00%
same,NO-NSAID response rate % (average),"HUVEC cells; Afatinib (10 μM), NO-NSAID 0.1 μM",13%
same,NO-NSAID response rate % (average),"HUVEC cells; Afatinib (10 μM), NO-NSAID 1 μM",20%
same,NO-NSAID response rate % (average),HUVEC cells; [2],50%
same,NO-NSAID response rate % (average),"HUVEC cells; Afatinib (10 μM), NO-NSAID 500 μM",25%
same,NO-NSAID response rate % (average),"HUVEC cells; Cabozantinib (5 μM), NO-NSAID 0.1 μM",10%
same,NO-NSAID response rate % (average),"HUVEC cells; Cabozantinib (5 μM), NO-NSAID 1 μM",10%
same,NO-NSAID response rate % (average),HUVEC cells; [3],4%
same,NO-NSAID response rate % (average),"HUVEC cells; Cabozantinib (5 μM), NO-NSAID 500 μM",15%
same,NO-NSAID response rate % (average),"HUVEC cells; Dabrafenib (10 μM), NO-NSAID 0.1 μM",22%
same,NO-NSAID response rate % (average),"HUVEC cells; Dabrafenib (10 μM), NO-NSAID 1 μM",48%
same,NO-NSAID response rate % (average),HUVEC cells; [4],53%
same,NO-NSAID response rate % (average),"HUVEC cells; Dabrafenib (10 μM), NO-NSAID 500 μM",37%
same,NO-NSAID response rate % (average),"HUVEC cells; Everolimus (5 μM), NO-NSAID 0.1 μM",4%
same,NO-NSAID response rate % (average),"HUVEC cells; Everolimus (5 μM), NO-NSAID 1 μM",−2%
same,NO-NSAID response rate % (average),HUVEC cells; [5],62%
same,NO-NSAID response rate % (average),"HUVEC cells; Everolimus (5 μM), NO-NSAID 500 μM",20%
same,activation at 100 µM,HUVEC cells; [2],50%
same,activation at 100 µM,"HUVEC cells; Anlotinib (5 μM), NO-NSAID 100 μM",16%
same,activation at 100 µM,"HUVEC cells; Apatinib (10 μM), NO-NSAID 100 μM",43%
same,activation at 100 µM,"HUVEC cells; Axitinib (10 μM), NO-NSAID 100 μM",65%
same,activation at 100 µM,HUVEC cells; [3],4%
same,activation at 100 µM,HUVEC cells; [4],53%
same,activation at 100 µM,"HUVEC cells; Dacomitinib (5 μM), NO-NSAID 100 μM",59%
same,activation at 100 µM,"HUVEC cells; Encorafenib (5 μM), NO-NSAID 100 μM",65%
same,activation at 100 µM,"HUVEC cells; Erdafitinib (10 μM), NO-NSAID 100 μM",51%
same,activation at 100 µM,HUVEC cells; [5],62%
same,activation at 100 µM,"HUVEC cells; Famitinib (5 μM), NO-NSAID 100 μM",70%
same,activation at 100 µM,"HUVEC cells; Fruquintinib (10 μM), NO-NSAID 100 μM",23%
same,activation at 100 µM,"HUVEC cells; Gefitinib (10 μM), NO-NSAID 100 μM",30%
same,activation at 100 µM,HUVEC cells; [6],80%
same,activation at 100 µM,HUVEC cells; [7],27%
same,activation at 100 µM,HUVEC cells; [8],28%
same,activation at 100 µM,HUVEC cells; [9],37%
same,activation at 100 µM,HUVEC cells; [10],64%
same,activation at 100 µM,HUVEC cells; [11],51%
same,activation at 100 µM,HUVEC cells; [12],51%
same,activation at 100 µM,HUVEC cells; [13],11%
same,activation at 100 µM,"HUVEC cells; Vemurafenib (5 μM), NO-NSAID 100 μM",45%
same,NO-NSAID response rate % (average),"HUVEC cells; Infigratinib (15 μM), NO-NSAID 0.1 μM",23%
same,NO-NSAID response rate % (average),"HUVEC cells; Infigratinib (15 μM), NO-NSAID 1 μM",14%
same,NO-NSAID response rate % (average),HUVEC cells; [6],80%
same,NO-NSAID response rate % (average),"HUVEC cells; Infigratinib (15 μM), NO-NSAID 500 μM",25%
same,NO-NSAID response rate % (average),"HUVEC cells; Lapatinib (5 μM), NO-NSAID 0.1 μM",27%
same,NO-NSAID response rate % (average),"HUVEC cells; Lapatinib (5 μM), NO-NSAID 1 μM",23%
same,NO-NSAID response rate % (average),HUVEC cells; [7],27%
same,NO-NSAID response rate % (average),"HUVEC cells; Lapatinib (5 μM), NO-NSAID 500 μM",24%
same,NO-NSAID response rate % (average),"HUVEC cells; Lenvatinib (10 μM), NO-NSAID 0.1 μM",21%
same,NO-NSAID response rate % (average),"HUVEC cells; Lenvatinib (10 μM), NO-NSAID 1 μM",13%
same,NO-NSAID response rate % (average),HUVEC cells; [8],28%
same,NO-NSAID response rate % (average),"HUVEC cells; Lenvatinib (10 μM), NO-NSAID 500 μM",10%
same,NO-NSAID response rate % (average),"HUVEC cells; Olmutinib (10 μM), NO-NSAID 0.1 μM",25%
same,NO-NSAID response rate % (average),"HUVEC cells; Olmutinib (10 μM), NO-NSAID 1 μM",20%
same,NO-NSAID response rate % (average),HUVEC cells; [9],37%
same,NO-NSAID response rate % (average),"HUVEC cells; Olmutinib (10 μM), NO-NSAID 500 μM",31%
same,NO-NSAID response rate % (average),"HUVEC cells; Regorafenib (5 μM), NO-NSAID 0.1 μM",21%
same,NO-NSAID response rate % (average),"HUVEC cells; Regorafenib (5 μM), NO-NSAID 1 μM",27%
same,NO-NSAID response rate % (average),HUVEC cells; [10],64%
same,NO-NSAID response rate % (average),"HUVEC cells; Regorafenib (5 μM), NO-NSAID 500 μM",42%
same,NO-NSAID response rate % (average),"HUVEC cells; Selumetinib (5 μM), NO-NSAID 0.1 μM",36%
same,NO-NSAID response rate % (average),"HUVEC cells; Selumetinib (5 μM), NO-NSAID 1 μM",28%
same,NO-NSAID response rate % (average),HUVEC cells; [11],51%
same,NO-NSAID response rate % (average),"HUVEC cells; Selumetinib (5 μM), NO-NSAID 500 μM",25%
same,NO-NSAID response rate % (average),"HUVEC cells; Sorafenib (5 μM), NO-NSAID 0.1 μM",1%
same,NO-NSAID response rate % (average),"HUVEC cells; Sorafenib (5 μM), NO-NSAID 1 μM",14%
same,NO-NSAID response rate % (average),HUVEC cells; [12],51%
same,NO-NSAID response rate % (average),"HUVEC cells; Sorafenib (5 μM), NO-NSAID 500 μM",8%
same,NO-NSAID response rate % (average),"HUVEC cells; Sunitinib (5 μM), NO-NSAID 0.1 μM",19%
same,NO-NSAID response rate % (average),"HUVEC cells; Sunitinib (5 μM), NO-NSAID 1 μM",5%
same,NO-NSAID response rate % (average),HUVEC cells; [13],11%
same,NO-NSAID response rate % (average),"HUVEC cells; Sunitinib (5 μM), NO-NSAID 500 μM",29%
